According to publication PMC6627558, “Structures and Bioactivities of Six New Triterpene Glycosides, Psolusosides E, F, G, H, H1, and I and the Corrected Structure of Psolusoside B from the Sea Cucumber Psolus fabricii” (Marine Drugs, 2019):
Where a name gives a salt, the structure may show the parent alone.

Legend:
[1] = test system: human colorectal adenocarcinoma HT-29 cells; experiment: MTS assay, cell viability of HT-29 cells; type: cell-based; conditions: Homo sapiens, 0–20 μM, 24 h
Method: (§1) The museum tetraploid strain of murine ascite Ehrlich carcinoma cells from the All-Russian Oncology Center (Moscow, Russia) was used. The cells were separated from the ascites, which were collected on day 7 after inoculation in mouse CD-1 line. The cells were washed of the ascites triply and resuspended in RPMI-1640 medium containing 8 μg/mL gentamicin (BioloT, St-Petersburg, Russia). Neuroblastoma Neuro 2A cells were cultured in DMEM medium containing 10% fetal bovine serum (FBS), (BioloT, St-Petersburg, Russia) and normal epithelial JB-6 cells were cultured in DMEM medium containing 5% fetal bovine serum (FBS), (BioloT, St-Petersburg, Russia) and 1% penicillin/streptomycine (Invitrogen). The HT-29 (ATCC # HTB-38) human colon cancer cell line was grown in monolayer in McCoy’s 5A medium supplemented with 10% (v/v) heat-inactivated FBS, 2 mM L-glutamine, and 1% penicillin-streptomycin in a humidified atmosphere containing 5% CO2. Cells were maintained in a sterile environment and kept in an incubator at 5% CO2 and 37 °C to promote growth. HT-29 cells were sub-cultured every 3–4 days by rinsing with phosphate buffered saline (PBS), adding trypsin to detach the cells from the tissue culture flask, and transferring 10%–20% of the harvested cells to a new flask containing fresh growth media.
The HT-29 cells (1.0 × 10^4/well) were seeded in 96-well plates for 24 h at 37 °C in 5% CO2 incubator. The cells were treated with the tested substances at concentrations range from 0 to 20 μM for an additional 24 h. Subsequently, cells were incubated with 15 μL MTS reagent for 3 h and the absorbance in each well was measured at 490/630 nm using microplate reader “Power Wave XS” (Bio Tek, Winooski, VT, USA). All the experiments were repeated three times, and the mean absorbance values were calculated. The results are expressed as the percentage of inhibition that produced a reduction in absorbance by compound’s treatment compared to the non-treated cells (control).

[2] = test system: human colorectal adenocarcinoma HT-29 cells; experiment: Soft agar assay, colony formation and growth of HT-29 cells; type: cell-based; conditions: Homo sapiens, 336 h, 0–10 μM, 14 days, read-out: Soft Agar Assay ICCF50 (inhibition of colony formation)
Method: as §1
The HT-29 cells (8.0 × 10^3) were seeded in 6-well plate and treated with the tested compounds at concentrations range 0–10 μM in 1 mL of 0.3% Basal Medium Eagle (BME) agar containing 10% FBS, 2mM L-glutamine, and 25 μg/mL gentamicin. The cultures were maintained at 37 °C in a 5% CO2 incubator for 14 days, and the cell’s colonies were scored using a microscope “Motic AE 20” (Scientific Instrument Company, Campbell, CA, USA) and the Motic Image Plus version 2.0 (Scientific Instrument Company, Campbell, CA, USA) computer program.

[3] = Hemolytic activity against mouse erythrocytes; type: cell-based; conditions: CD-1, mouse erythrocyte suspension, pH 7.4, 24 h at 37 °C, read-out: Cytotoxicity EC50, Erhythrocytes (hemolytic activity)
Method: (§2) Blood was taken from CD-1 mice (18–20 g). The mice were anesthetized with diethyl ether, their chests were rapidly opened, and blood was collected in cold (4 °C) 10 mM phosphate-buffered saline, pH 7.4 (PBS) without anticoagulant. Erythrocytes were washed 3 times in PBS using at least 10 vol. of washing solution by centrifugation (2000 rpm) for 5 min. Erythrocytes were used at a concentration that provided an optical density of 1.0 at 700 nm for a non-hemolyzed sample. Then, 20 μL of a water solution of test substance with a fixed concentration was added to a well of a 96-well plate containing 180 μL of the erythrocyte suspension. Erythrocyte suspension was incubated with substances for 24 h at 37 °C. After that, the optical density of the obtained solutions was measured and ED50 for hemolytic activity of each compound was calculated.

[4] = test system: mouse erythrocytes; experiment: Hemolytic activity against mouse erythrocytes; type: cell-based
Method: as §2

[5] = Cytotoxic activity against ascite form of mouse Ehrlich carcinoma cells (nonspecific esterase / MTT assay); type: cell-based; conditions: ascite form of mouse Ehrlich carcinoma cells; read-out: Cytotoxicity EC50, Ehrlich carcinoma
Method: as §1
(§3) Cytotoxic activity against ascite form of mouse Ehrlich carcinoma cells was investigated by nonspecific esterase activity assay. In total, 10µL of the test substance solution and 100 μL of the cell suspension were placed into each well of a 96-well microplate. The plate was incubated in a CO2 incubator at 37 °C for 1 or 24 h. A stock solution of the probe fluorescein diacetate (FDA; Sigma, St. Louis, MO, USA) in DMSO (1 mg/mL) was prepared. After incubation of the cells with test compounds, 10 μL of FDA solution (50 μg/mL) was added to each well and the plate was incubated at 37 °C for 15 min. Cells were washed with PBS, and fluorescence was measured with a Fluoroskan Ascent plate reader (Thermo Labsystems, Helsinky, Finland) at λex = 485 nm and λem = 518 nm. All experiments were repeated in triplicate. Cytotoxic activity was expressed as the percent of cell viability. Nonspecific esterase activity assay has been used for determination of cytotoxicity against neuroblastoma Neuro 2A and normal epithelial JB-6 cells.
The solutions of tested substances in different concentrations (20 µL) and cell suspension (200 µL) were added in wells of 96-well plate and incubated over night at 37 °C and 5% CO2. After incubation, the cells were sedimented by centrifugation, 200 µL of medium from each well were collected, and 100 µL of pure medium were added. Then, 10 µL of MTT solution […] (Sigma, St. Louis, MO, USA) were added in each well. The plate was incubated for 4 h, after which 100 µL SDS-HCl were added to each well, and the plate was incubated at 37 °C for 4–18 h. Optical density was measured at 570 nm and 630–690 nm. Cytotoxic activity of the substances was calculated as the concentration that caused 50% metabolic cell activity inhibition (IC50). The MTT assay has been used for determination of cytotoxic activity against Ehrlich carcinoma cells.

[6] = Cytotoxicity against neuroblastoma Neuro 2A cells (nonspecific esterase activity assay); type: cell-based, mouse; conditions: mouse neuroblastoma Neuro 2A cells
Method: as §1, §3

[7] = Cytotoxicity against normal epithelial JB-6 cells (nonspecific esterase activity assay); type: cell-based, mouse; conditions: mouse, normal epithelial JB-6 cells
Method: as §1, §3

[8] = test system: mouse neuroblastoma Neuro 2A cells; experiment: Cytotoxicity against neuroblastoma Neuro 2A cells (nonspecific esterase activity assay); type: cell-based; conditions: Neuro 2A cells
Method: as §1, §3

[9] = test system: normal epithelial JB-6 cells; experiment: Cytotoxicity against normal epithelial JB-6 cells (nonspecific esterase activity assay); type: cell-based, mouse; conditions: JB-6 cells
Method: as §1, §3

| Compound | IC50 [1] [µM] | IC50 [2] [µM] | EC50 at 24 h [3] [µM] | hemolytic activity (in words) [4] | EC50 [5] [µM] | EC50 [6] [µM] | EC50 [7] [µM] | activity against Neuro 2A cells (in words) [8] | cytotoxicity against normal JB-6 cells (in words) [9] |
| --- | --- | --- | --- | --- | --- | --- | --- | --- | --- |
| C=C(C)CCC[C@](C)(OC(C)=O)[C@H]1[C@@H]2C[C@@]3(C)C4=CC[C@H]5C(C)(C)[C@@H](O[C@@H]6OC[C@@H](O[C@@H]7O[C@H](CO)[C@@H](O)[C@H](O)[C@H]7OS(=O)(=O)O)[C@H](O)[C@H]6O[C@@H]6O[C@H](CO)[C@@H](O[C@@H]7O[C@H](COS(=O)(=O)O)[C@@H](O)[C@H](O)[C@H]7O)[C@H](O)[C@H]6O)CC[C@]5(C)[C@@H]4CC[C@]13C(=O)O2 [psolusoside B (1), 3β-O-{6-O-sodium sulfate-β-D-glucopyranosyl-(1→4)-β-D-glucopyranosyl-(1→2)-[2-O-sodium sulfate-β-D-glucopyranosyl-(1→4)]-β-D-xylopyranosyl}-9βH,20(S)-acetoxylanosta-7,25-diene-18(16)-lactone] | > 20 | > 10 | – | – | – | – | – | – | – |
| C=C(C)CCC[C@]1(C)OC(=O)[C@]23CC[C@@H]4C(=CC[C@H]5C(C)(C)[C@@H](O[C@@H]6OC[C@@H](O[C@@H]7O[C@H](COS(=O)(=O)O)[C@@H](O)[C@H](O)[C@H]7O)[C@H](O)[C@H]6O[C@@H]6OC[C@@H](O[C@@H]7O[C@H](COS(=O)(=O)O)[C@@H](O)[C@H](O)[C@H]7O)[C@H](O)[C@H]6O)CC[C@]45C)[C@]2(C)C[C@H](OC(C)=O)[C@@H]31 [Psolusoside I (7), 3β-O-{6-O-sodium sulfate-β-D-glucopyranosyl-(1→4)-β-D-xylopyranosyl-(1→2)-[6-O-sodium sulfate-β-D-glucopyranosyl-(1→4)]-β-D-xylopyranosyl}-16β-acetoxyholosta-7,25-diene] | > 20 | 10 ± 0.4 | 18.3 | moderate hemolytic activity | 87.4 | 26.8 | 37.2 | – | – |
| C=C(C)CCC[C@]1(C)OC(=O)[C@]23CC[C@@H]4C(=CC[C@H]5C(C)(C)[C@@H](O[C@@H]6OC[C@@H](O)[C@H](O)[C@H]6O[C@@H]6O[C@H](CO)[C@@H](O[C@@H]7O[C@H](COS(=O)(=O)O)[C@@H](O)[C@H](O)[C@H]7O)[C@H](O)[C@H]6O)CC[C@]45C)[C@]2(C)CC[C@@H]31 [Psolusoside H1 (6), 3β-O-[6-O-sodium-sulfate-β-D-glucopyranosyl-(1→4)-β-D-glucopyranosyl-(1→2)-β-D-xylopyranosyl]-holosta-7,25-diene] | > 20 | 9 ± 0.3 | 2.7 | – | 92.5 | 10.7 | 32.3 | – | – |
| C=C(C)CCC[C@]1(C)OC(=O)[C@]23CC=C4[C@@H](CC[C@H]5C(C)(C)[C@@H](O[C@@H]6OC[C@@H](O)[C@H](O)[C@H]6O[C@@H]6O[C@H](C)[C@@H](O[C@@H]7O[C@H](COS(=O)(=O)O)[C@@H](O)[C@H](O[C@@H]8O[C@H](CO)[C@@H](O)[C@H](OC)[C@H]8O)[C@H]7O)[C@H](O)[C@H]6O)CC[C@]45C)[C@]2(C)CC(=O)[C@@H]31 [Psolusoside E (2), 3β-O-[3-O-methyl-β-D-glucopyranosyl-(1→3)-6-O-sodium-sulfate-β-D-glucopyranosyl-(1→4)-β-D-quinovopyranosyl-(1→2)-β-D-xylopyranosyl]-16-ketoholosta-9(11),25-diene] | > 20 | 0.1 ± 0.03 | 0.23 | – | 55.8 | 3.96 | – | – | – |
| C=C(C)CCC[C@]1(C)OC(=O)[C@]23CC[C@@H]4C(=CC[C@H]5C(C)(C)[C@@H](O[C@@H]6OC[C@@H](O)[C@H](O)[C@H]6O[C@@H]6O[C@H](CO)[C@@H](O[C@@H]7O[C@H](COS(=O)(=O)O)[C@@H](O)[C@H](O)[C@H]7O)[C@H](O)[C@H]6O)CC[C@]45C)[C@]2(C)CC(=O)[C@@H]31 [Psolusoside H (5), 3β-O-[6-O-sodium-sulfate-β-D-glucopyranosyl-(1→4)-β-D-glucopyranosyl-(1→2)-β-D-xylopyranosyl]-16-ketoholosta-7,25-diene] | > 20 | > 10 | 2.5 | – | > 100 | 47.5 | 43.2 | – | – |
| C=C(C)CCC[C@]1(C)OC(=O)[C@]23CC=C4[C@@H](CC[C@H]5C(C)(C)[C@@H](O[C@@H]6OC[C@@H](O)[C@H](O)[C@H]6O[C@@H]6O[C@H](C)[C@@H](O[C@@H]7O[C@H](CO)[C@@H](O)[C@H](O[C@@H]8O[C@H](COS(=O)(=O)O)[C@@H](O)[C@H](OC)[C@H]8O)[C@H]7O)[C@H](O)[C@H]6O)CC[C@]45C)[C@]2(C)CC(=O)[C@@H]31 [Psolusoside F (3), 3β-O-[6-O-sodium-sulfate-3-O-methyl-β-D-glucopyranosyl-(1→3)-β-D-glucopyranosyl-(1→4)-β-D-quinovopyranosyl-(1→2)-β-D-xylopyranosyl]-16-ketoholosta-9(11),25-diene] | > 20 | 0.5 ± 0.03 | 2.8 | – | 96.2 | 10.8 | 23.8 | – | – |
| C=C(C)CCC[C@]1(C)OC(=O)[C@]23CC=C4[C@@H](CC[C@H]5C(C)(C)[C@@H](O[C@@H]6OC[C@@H](O)[C@H](O)[C@H]6O[C@@H]6O[C@H](CO)[C@@H](O[C@@H]7O[C@H](COS(=O)(=O)O)[C@@H](O)[C@H](O[C@@H]8O[C@H](COS(=O)(=O)O)[C@@H](O)[C@H](OC)[C@H]8O)[C@H]7O)[C@H](O)[C@H]6O)CC[C@]45C)[C@]2(C)CC(=O)[C@@H]31 [Psolusoside G (4), 3β-O-[6-O-sodium-sulfate-3-O-methyl-β-D-glucopyranosyl-(1→3)-6-O-sodium-sulfate-β-D-glucopyranosyl-(1→4)-β-D-glucopyranosyl-(1→2)-β-D-xylopyranosyl]-16-ketoholosta-9(11),25-diene] | – | – | 4.2 | – | 98.3 | 7.3 | > 100 | high activity | not cytotoxic |
